Experimental data: patent US8906868B2, “Aminoglycoside derivatives” (Rempex Pharmaceuticals, Inc., priority 2010, dated 2014)

Tests used:
ECM6006 aph(3′)-III = test: microbe, parasite or virus in culture; type: cell-based, Escherichia coli
How it was run: (§1)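 Broth microdilution per CLSI M7-A7 in cation-adjusted Mueller Hinton broth, 2-fold serial dilutions, inoculum 5×10^5 CFU/ml from overnight colonies. Incubated 18 hours at 35° C. MIC read as turbidity at 600 nm, confirmed visually.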

ECM6009 aac(3)-II = test: microbe, parasite or virus in culture; type: cell-based, Escherichia coli
How it was run: as §1

ECM6010 ant(2″)-I = test: microbe, parasite or virus in culture; type: cell-based, Escherichia coli
How it was run: as §1

ECM6011 aph(3′)-I = test: microbe, parasite or virus in culture; type: cell-based, Escherichia coli
How it was run: as §1

ECM6003 rmtB = test: microbe, parasite or virus in culture; type: cell-based, Escherichia coli
How it was run: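 Broth microdilution per CLSI M7-A7 in cation-adjusted Mueller Hinton broth with 2-fold serial dilutions and 5×10^5 CFU/ml inoculum. Incubated 18 hours at 35 °C; MIC read by turbidity at 600 nm and confirmed visually.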

EC1002 aph(3′)-IV = test: organism not typed; type: cell-based
How it was run: as §1

EC1001 acc(6′)-Ib = test: microbe, parasite or virus in culture; type: cell-based, Escherichia coli
How it was run: (§2)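 Broth microdilution per CLSI guidelines: compounds serially diluted 2-fold in cation-adjusted Mueller Hinton broth, inoculum 5×10^5 CFU/ml from overnight colonies, 18 hours at 35° C. MIC read by turbidity at 600 nm and confirmed visually.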

[1] = test system: ECM6007 aac(6′) + aph(2″); test: microbe, parasite or virus in culture; type: cell-based, Escherichia coli
How it was run: as §2

ACM1005 ATCC 19004 = test: MIC, broth microdilution; type: cell-based, Acinetobacter baumannii
How it was run: as §2

ACM1006 acc(6′)-Ib = test: microbe, parasite or virus in culture; type: cell-based, Acinetobacter baumannii
How it was run: as §2

PAM3072 aac(6′)-II = test: microbe, parasite or virus in culture; type: cell-based, Pseudomonas aeruginosa
How it was run: as §2

PAM3073 aac(6′)-I = test: microbe, parasite or virus in culture; type: cell-based, Pseudomonas aeruginosa
How it was run: as §2

Sa 287 aac(6′) + aph(2″) = test: microbe, parasite or virus in culture; type: cell-based, Staphylococcus aureus
Protocol: To compare microbiological activity of the test compounds, minimum inhibitory concentrations (MIC.s) were determined. Antibiotic MICs were obtained using the broth microdilution method according to Clinical and Laboratory Standards Institute (CLSI) approved guidelines (Methods for dilution antimicrobial susceptibility tests for bacteria that grow aerobically; approved standard—7th ed. CLSI document M7-A7. Clinical and Laboratory Standards Institute, Wayne, Pa., incorporated herein by reference in its entirety). Antibiotics were dissolved as specified by CLSI (Performance standards for antimicrobial susceptibility testing; Seventeenth informational supplement. CLSI document M100-S17. Clinical and Laboratory Standards Institute, Wayne, Pa., incorporated herein by reference in its entirety), and were serially diluted 2-fold in cation adjusted Mueller Hinton Broth (CaMHB) at 2× concentration. Bacterial inoculums were prepared in CaMHB by suspension of a colony from an agar plate that was prepared the previous day to obtain a final concentration of 5×10^5CFU/ml. The plates were incubated for 18 hours at 35° C. […] MIC.s were determined by reading the turbidity of plate wells using a SpectraMax Plus384 plate reader (Molecular Devices, Sunnyvale, Calif., USA) at 600 nm and were confirmed by visual inspection.

[2] = test system: Escherichia coli (ATCC 25922); test: MIC, broth microdilution
[3] = test system: Staphylococcus aureus (ATCC 29213); test: MIC, broth microdilution
[4] = test system: Pseudomonas aeruginosa (ATCC 27853); test: MIC, broth microdilution

**Q.** Gentamicin C1a [reference compound] was tested. Which “Compound MIC on Bacterial Strains: ECM6006 aph(3′)-III” value (ECM6006 aph(3′)-III) did it give?
**A.** B (key: A: MIC of 1 μg/ml or less; B: MIC of greater than 1 μg/ml to 8 μg/ml; MIC of greater than 8 μg/ml)

**Q.** What about the “Compound MIC on Bacterial Strains: ECM6009 aac(3)-II” value (ECM6009 aac(3)-II) of the same substance?
**A.** C (key: A: MIC of 1 μg/ml or less; B: MIC of greater than 1 μg/ml to 8 μg/ml; MIC of greater than 8 μg/ml)

**Q.** And the “Compound MIC on Bacterial Strains: ECM6010 ant(2″)-I” value (ECM6010 ant(2″)-I)?
**A.** C (key: A: MIC of 1 μg/ml or less; B: MIC of greater than 1 μg/ml to 8 μg/ml; MIC of greater than 8 μg/ml)

**Q.** What about the “Compound MIC on Bacterial Strains: ECM6011 aph(3′)-I” value (ECM6011 aph(3′)-I) of the same substance?
**A.** B (key: A: MIC of 1 μg/ml or less; B: MIC of greater than 1 μg/ml to 8 μg/ml; MIC of greater than 8 μg/ml)

**Q.** What about the “Compound MIC on Bacterial Strains: ECM6003 rmtB” value (ECM6003 rmtB) of the same substance?
**A.** C (key: A: MIC of 1 μg/ml or less; B: MIC of greater than 1 μg/ml to 8 μg/ml; MIC of greater than 8 μg/ml)

**Q.** What about the “Compound MIC on Bacterial Strains: EC1002 aph(3′)-IV” value (EC1002 aph(3′)-IV) of the same substance?
**A.** A (key: A: MIC of 1 μg/ml or less; B: MIC of greater than 1 μg/ml to 8 μg/ml; MIC of greater than 8 μg/ml)

**Q.** And the “Compound MIC on Bacterial Strains: Escherichia coli EC1001 acc(6′)-Ib” value (EC1001 acc(6′)-Ib)?
**A.** C (key: A: MIC of 1 μg/ml or less; B: MIC of greater than 1 μg/ml to 8 μg/ml; MIC of greater than 8 μg/ml)

**Q.** What about the “Compound MIC on Bacterial Strains: Escherichia coli ECM6007 aac(6′) + aph(2″)” value [1] of the same substance?
**A.** B (key: A: MIC of 1 μg/ml or less; B: MIC of greater than 1 μg/ml to 8 μg/ml; MIC of greater than 8 μg/ml)

**Q.** What about the “Compound MIC on Bacterial Strains: Acinetobacter baumannii ACM1005 ATCC 19004” value (ACM1005 ATCC 19004) of the same substance?
**A.** A (key: A: MIC of 1 μg/ml or less; B: MIC of greater than 1 μg/ml to 8 μg/ml; MIC of greater than 8 μg/ml)

**Q.** And the “Compound MIC on Bacterial Strains: Acinetobacter baumannii ACM1006 acc(6′)-Ib” value (ACM1006 acc(6′)-Ib)?
**A.** C (key: A: MIC of 1 μg/ml or less; B: MIC of greater than 1 μg/ml to 8 μg/ml; MIC of greater than 8 μg/ml)

**Q.** What about the “Compound MIC on Bacterial Strains: Pseudomonas aeruginosa PAM3072 aac(6′)-II” value (PAM3072 aac(6′)-II) of the same substance?
**A.** C (key: A: MIC of 1 μg/ml or less; B: MIC of greater than 1 μg/ml to 8 μg/ml; MIC of greater than 8 μg/ml)

**Q.** What about the “Compound MIC on Bacterial Strains: Pseudomonas aeruginosa PAM3073 aac(6′)-I” value (PAM3073 aac(6′)-I) of the same substance?
**A.** B (key: A: MIC of 1 μg/ml or less; B: MIC of greater than 1 μg/ml to 8 μg/ml; MIC of greater than 8 μg/ml)

**Q.** And the “Compound MIC on Bacterial Strains: Staphylococcus aureus Sa 287 aac(6′) + aph(2″)” value (Sa 287 aac(6′) + aph(2″))?
**A.** C (key: A: MIC of 1 μg/ml or less; B: MIC of greater than 1 μg/ml to 8 μg/ml; MIC of greater than 8 μg/ml)

**Q.** What about the “Compound MIC on Bacterial Strains: ECM6000 ATCC 25922” value [2] of the same substance?
**A.** A (key: A: MIC of 1 μg/ml or less; B: MIC of greater than 1 μg/ml to 8 μg/ml; MIC of greater than 8 μg/ml)

**Q.** And the “Compound MIC on Bacterial Strains: Escherichia coli ECM6000 ATCC 25922” value [2]?
**A.** A (key: A: MIC of 1 μg/ml or less; B: MIC of greater than 1 μg/ml to 8 μg/ml; MIC of greater than 8 μg/ml)

**Q.** What about the “Compound MIC on Bacterial Strains: Staphylococcus aureus SAM1000 ATCC 29213” value [3] of the same substance?
**A.** A (key: A: MIC of 1 μg/ml or less; B: MIC of greater than 1 μg/ml to 8 μg/ml; MIC of greater than 8 μg/ml)

**Q.** And the “Compound MIC on Bacterial Strains: Pseudomonas aeruginosa PAM3034 ATCC 27853” value [4]?
**A.** A (key: A: MIC of 1 μg/ml or less; B: MIC of greater than 1 μg/ml to 8 μg/ml; MIC of greater than 8 μg/ml)
